Results taken from patent US20260193298A1, “SYNTHETIC PEPTIDE FOR USE IN AN IMMUNOMOLECULAR ASSAY” (BIOMÉRIEUX, priority 2022, published 2026).
Non-standard residues stand in square brackets, D forms with d. No end group written: not given here. Ado = 8-amino-2,4-dioxa octanoic acid

What was measured:
procalcitonin (rPCT) [1] = test: Interference of Bitag 2 peptide with procalcitonin dual-recognition immunoassay in PBS-BSA buffer; parameters: species or system human
Description: (§1) Proximity Extension Assay (PEA™). The Proximity extension assay protocol and the different buffers were taken over from the protocol initially described by Lundberg et al. and also from a recently developed shorter protocol (unpublished results). Proximity extension assay was performed in specific multi-well plates (Hard-Shell 96-Well Clear shell PCR Plates, BioRad, Hercule, CA, USA), in triplicate. Briefly, 5 μL of sample (PBS1x-0.1% BSA buffer or human EDTA plasma with or without rPCT and/or IC peptide) were mixed with 5 μL of a mix of the two PEA™ conjugates (500 pM each) diluted in the probe incubation buffer and incubated at 37° C. for 60 min. After probe incubation, a dilution buffer containing 40 mM of each dNTP were added. After a 5 minutes incubation step at 37° C., 96 μl extension mix containing 26 U/mL of T4 DNA Polymerase (Thermofisher) were added and incubated at 37° C. for an additional 3 minutes, followed by a heat inactivation step at 80° C.
(§2) Detection by qPCR. For qPCR detection, 4 μL of extension products were transferred to a qPCR plate and mixed with 36 μL of qPCR mix (SYBRGREEN mix, Bio-Rad) containing 0.6 μM of each PCR primer. A one-step qPCR was run with initial denaturation at 95° C. for 3 min, followed by 1 sec of denaturation at 95° C. and 10 sec annealing/extension at 63° C. for 40 cycles. Finally, a melt step was performed by increasing the temperature gradually from 60° C. to 95° C. at 0.5° C./sec.
Interference between procalcitonin and internal control. […] The results are illustrated in FIG. 4. For 0.1 ng/mL of rPCT, no significant difference was observed across the range of peptide concentrations added to the sample (mean=34.38±0.15).

[2] = tested on: internal control proximity probes; test: Procalcitonin and internal control DRI in parallel in PBS-BSA, PCR with internal control primer set; parameters: species or system mouse; conditions: rPCT 0 or 0.1 ng/mL; peptide 0 to 160 ng/mL
Description: as §1
as §2, with “Finally, a melt step was performed by increasing the temperature gradually from 60° C. to 95° C. at 0.5° C./sec.” left out

[3] = tested on: internal control proximity probes MMC (18D12 and 2G4); test: Dual-recognition immunoassay (PEA) of Bitag 2 peptide spiked in human plasma, MMC probes; format: binding, mouse; conditions: for loss of Delta-Ct in human plasma compared to PBS-BSA: pool of three plasma specimens
Description: Whole blood specimens were obtained from healthy donors from the French National Blood Bank (EFS, Etablissement Français du Sang, Lyon, France). Samples were selected on the basis of a negative PCT test. Fresh blood was centrifuged for five min at 20 000 g, at 4° C., using a refrigerated microcentrifuge (Eppendorf 5424R, Montesson, France). After centrifugation, the supernatant, which corresponds to the plasma, was recovered for Dual-recognition immunoassay and stored at 4° C. before use. For all biological samples, informed consent was obtained for any experimentation. All experiments were performed in compliance with the relevant laws and institutional guidelines and in accordance with the ethical standards of the Declaration of Helsinki.
as §1, §2
In order to confirm these preliminary results obtained on peptide diluted in the PBS-BSA buffer, PEA™ was performed, using MMC probes, on human plasma (pool of three plasma specimens) spiked with four concentrations of Bitag 2 peptide, from 0 to 500 ng/mL. The results are illustrated in FIG. 3a. Overall, while the assay presented a similar dynamic to that obtained in PBS-BSA buffer, Delta-Ct values appeared to be slightly lower compared to those obtained in PBS-BSA (loss of 0.26 and 0.36 for 5 ng/mL and 50 ng/mL of peptide, respectively). In addition, for 500 ng/mL, a significant loss of dynamic was observed (Delta-Ct50-500 of 0.9 versus Delta-Ct5-50 of 2.72).
Third, a Bitag 2 concentration suitable for internal control Dual-recognition immunoassay had to be chosen. […] To confirm the specificity of the results obtained with 50 ng/mL of Bitag 2 peptide, human plasma specimens were tested by Dual-recognition immunoassay after addition of 50 ng/mL of peptide (n=25 samples) or without peptide complementation (n=13 samples). According to a Mann-Whitney test, the difference between the two groups was significant (P<0.001).

[4] = tested on: internal control proximity probes (18D12 anti-His tag and 2G4 anti-Lys tag antibodies coupled to MML or MMC oligonucleotides); test: Dual-recognition immunoassay (PEA) of Bitag peptide spiked in PBS-BSA buffer, qPCR readout; format: binding, mouse; conditions: for Delta-Ct0-50: 0 vs 50 ng/mL peptide
Description: Proximity probes. Proximity probes were prepared by covalently linking purified PCT monoclonal antibodies to HPLC-purified oligonucleotides. […] Synthesis, modifications and HPLC-purification of the oligonucleotides were all performed by Integrated DNA Technologies (Louvain, Belgium). Antibody-oligonucleotide conjugates were generated using commercial Thunderlink kit (Abcam, Cambridge, UK), following the manufacturer's instructions, using a 5:1 oligonucleotide-to-antibody ratio. Conjugation quality was checked by running conjugates on a reducing 4-12% SDS-PAGE (Thermofisher, Waltham, MA, USA) followed by Coomassie Blue staining (Thermofisher) as recommended by the supplier's instructions (Abcam).
as §1, §2
Second, to determine the best combination of spacer size and oligonucleotide length, proximity probes were tested successively on the two Bitag 1 and Bitag 2 peptides. The first type of probes, called MML, featured a longer version of the oligonucleotides (49 and 56 bases), whilst the second type of probes, called MMC, featured a shorter version of the oligonucleotides (29 and 31 bases). For both MML and MMC, the size of the complementary sequence located at the 3′-end of each oligonucleotide was 9 nucleotides.
FIG. 2 summarizes the dual-recognition immunoassay results obtained for three concentrations of Bitag peptide (0, 5 and 50 ng/mL) spiked in PBS-BSA buffer.

[5] = tested on: internal control proximity probes; test: Internal control dual-recognition immunoassay in human plasma specimens spiked with rPCT and Bitag peptide; format: binding, mouse; conditions: Bitag peptide at 50 ng/mL
Description: as §1
as §2, with “Finally, a melt step was performed by increasing the temperature gradually from 60° C. to 95° C. at 0.5° C./sec.” left out

procalcitonin (rPCT) [6] = test: Procalcitonin and internal control DRI in parallel in PBS-BSA, PCR with primers specific of the PCT DRI probes; parameters: species or system human; conditions: 0 ng/mL PCT, PCT primer set
Description: as §1
as §2, with “Finally, a melt step was performed by increasing the temperature gradually from 60° C. to 95° C. at 0.5° C./sec.” left out

[7] = tested on: 2G4 monoclonal antibody (anti-Lys tag); test: Indirect ELISA on plates coated with Bitag peptide, detection with anti-Lys tag antibody 2G4; format: binding, mouse
Description: (§3) Enzyme Linked Immuno-Sorbant Assays (ELISA). After overnight sensitization with peptides diluted at 5 μg/mL in PBS buffer, pH 7.4 (Euromedex, Souffelweyersheim, France), Nunc 96-well plates (Thermofisher) were saturated for 1 h at room temperature (RT) with PBS1x-Bovine Serum Albumin 5% (BSA, Sigma-Aldrich, Saint Louis, MI, USA). After 4 washes with PBS1x-Tween20 0.1%, PBS1x-BSA 1% buffer containing the anti-tag antibody (at 1 μg/mL) was added and incubated for 1 h at 37° C. The developing with PNPP substrates (Thermofisher) was performed after 30 min of incubation at 37° C. with a 1/50 000 dilution in PBS-BSA-0.5% of an alkaline phosphatase (AP)-labeled streptavidin (Jackson Immunoresearch, Ely, UK). The absorbance level (optical density, OD) was red at 405 nm (OD405) using an Infinite M Nano+ microplate reader (Tecan, Mannedorf, Switzerland). All samples were tested in duplicate and in three independent experiments.
(§4) Selection and validation of the Bitag peptides and the proximity probes. First, to check that the anti-tag antibodies do bind to their epitopes in the context of the Bitag peptides, indirect ELISA was performed by sensitizing multiwall plates with either Bitag 1 or Bitag 2 peptides at two concentrations (1 μg/mL and 5 μg/mL). For the two coated peptides, 18D12 monoclonal antibody (anti-His tag) or 2G4 and 5F12 monoclonal antibodies (anti-Lys tag) were used for detection with an AP-labelled anti-mouse conjugate.

[8] = tested on: 18D12 monoclonal antibody (anti-His tag); test: Indirect ELISA on plates coated with Bitag peptide, detection with anti-His tag antibody; format: binding, mouse
Description: as §3, §4

[9] = tested on: 5F12 monoclonal antibody (anti-Lys tag); test: Indirect ELISA on plates coated with Bitag peptide, detection with anti-Lys tag antibody 5F12; format: binding, mouse; conditions: 5 μg versus 1 μg of peptide
Description: as §3
Selection and validation of the Bitag peptides and the proximity probes. First, to check that the anti-tag antibodies do bind to their epitopes in the context of the Bitag peptides, indirect ELISA was performed by sensitizing multiwall plates with either Bitag 1 or Bitag 2 peptides at two concentrations (1 μg/mL and 5 μg/mL). […]

Q: With “MRGSHHHHHHNNNGKKKKKKSV (MRGSHHHHHH[Ado][Ado][Ado]GKKKKKKSV-NH2) [Bitag 2, His tag and Lys tag separated by 3 Ado spacers; N is 8-amino-2,4-dioxa octanoic acid]” as the sequence, how does the “Ct of procalcitonin DRI” value (procalcitonin (rPCT) [1]; 0 ng/mL rPCT, 160 ng/mL of peptide) read?
A: The value was 35.9.

Q: What about the “Ct of procalcitonin DRI, average value for the other peptide concentrations” value (procalcitonin (rPCT) [1]; 0 ng/mL rPCT, peptide concentrations other than 160 ng/mL) of the same sequence?
A: Its value is 36.98.

Q: What about the “Ct of procalcitonin DRI, mean across the range of peptide concentrations” value (procalcitonin (rPCT) [1]; 0.1 ng/mL rPCT, Bitag 2 from 0 to 200 ng/mL) of the same sequence?
A: The value was 34.38±0.15.

Q: And the “interference of procalcitonin on Ct with internal control PCR primer set” value [2]?
A: Its value is “no interference”.

Q: And the “loss of Delta-Ct in human plasma compared to PBS-BSA” value ([3]; 5 ng/mL of peptide, MMC probes)?
A: Its value is 0.26.

Q: And the “loss of Delta-Ct in human plasma compared to PBS-BSA” value ([3]; 50 ng/mL of peptide, MMC probes)?
A: Its value is 0.36.

Q: What about the Delta-Ct5-50 ([3]; human plasma, 5 vs 50 ng/mL peptide, MMC probes) of the same sequence?
A: Its Delta-Ct5-50 is 2.72.

Q: And the Delta-Ct50-500 ([3]; human plasma, 50 vs 500 ng/mL peptide, MMC probes)?
A: The Delta-Ct50-500 was 0.9.

Q: And the “dynamic range of detection” value ([3]; short (MMC) oligonucleotides)?
A: The value was “about 3 orders of magnitude”.

Q: What about the “gain in Delta-Ct for MMC versus MML” value ([4]; 5 ng/mL of peptide, PBS-BSA buffer) of the same sequence?
A: The value was 2.32.

Q: And the “gain in Delta-Ct for MMC versus MML” value ([4]; 50 ng/mL of peptide, PBS-BSA buffer)?
A: The value was 1.86.

Q: What about the Delta-Ct0-50 ([4]; MMC probes, PBS-BSA buffer) of the same sequence?
A: Its Delta-Ct0-50 is 7.08.

Q: And the Delta-Ct0-50 ([4]; MML probes, PBS-BSA buffer)?
A: The Delta-Ct0-50 was 5.22.

Q: What about the “Delta-Ct of the combination of MMC oligonucleotides and peptide, compared with the other combinations” value ([4]; peptide concentrations tested (5 and 50 ng/mL), PBS-BSA) of the same sequence?
A: The value was “highest Delta-Ct”.

Q: What about the “Ct mean value for the internal control” value ([5]; 0 ng/mL of PCT) of the same sequence?
A: The value was 33.53±0.11.

Q: And the “Ct mean value for the internal control” value ([5]; 10 ng/mL of PCT)?
A: Its value is 34.23±0.40.

Q: And the “Delta-Ct between sample with 40 ng of peptide and sample without peptide (background noise)” value (procalcitonin (rPCT) [6])?
A: Its value is 1.4.

Q: Which OD405 ([7]; 1 μg of Bitag 1 peptide, detection with 2G4) does the source give for “MRGSHHHHHHNNGKKKKKKSV (MRGSHHHHHH[Ado][Ado]GKKKKKKSV-NH2) [Bitag 1, His tag and Lys tag separated by two Ado spacers; N is 8-amino-2,4-dioxa octanoic acid]” here?
A: Its OD405 is 0.993.

Q: What about the “increase of OD405 for 5 μg of peptide” value ([7]; 5 μg versus 1 μg of peptide, 2G4) of the same sequence?
A: The value was “+0.089”.

Q: What about the “signal in the presence of peptide relative to signal without peptide” value ([7]; 2G4 antibody, 5 μg of Bitag 1) of the same sequence?
A: The value was 9.17 times.

Q: What about the OD405 ([8]; 1 μg of Bitag 1 peptide, detection with 18D12) of the same sequence?
A: Its OD405 is 0.617.

Q: What about the “increase of OD405 for 5 μg of peptide” value ([8]; 5 μg versus 1 μg of peptide, 18D12) of the same sequence?
A: Its value is “+0.262”.

Q: What about the “signal in the presence of peptide relative to signal without peptide” value ([8]; 18D12 antibody, 1 μg of Bitag 1) of the same sequence?
A: Its value is 5.42 times.

Q: What about the “Delta-Ct for MMC compared with MML probes” value ([4]; PBS-BSA buffer) of the same sequence?
A: Its value is “higher”.

Q: And the “increase of OD405 for 5 μg of peptide” value [9]?
A: Its value is “+0.074”.

Q: With “MRGSHHHHHHSVDESNNNGKKKKKKSVDESL (MRGSHHHHHHSVDES[Ado][Ado][Ado]GKKKKKKSVDESL-NH2) [Bitag 2′, long His tag and long Lys tag, three spacer units; N is 8-amino-2,4-dioxa octanoic acid]” as the sequence, how does the “results obtained with Bitag 2 peptide repeated with this peptide” value ([4]; data not shown) read?
A: Its value is “reproduced and confirmed”.
